Results as given in US12018097.
Like-named read-outs stand apart in the source and are kept apart here.

Conditions: the molecule shown is the open-chain precursor, thioether bond, resin, 4 steps

## catch-resin-ArSO2O-CH2CO-dTrp-Asp-MeSer-Gly-Asp-Pro-MeAla-Asp-Val-MeSer-Gly-Arg-MePhe-MeGly-Tyr-MePhe-Pro-Cys-Gly-NH2?
57-membered ring
  ring closure, conversion: 50%

## catch-resin-ArSO2O-CH2CO-dTrp-Asp-Pro-MeAla-Asp-Val-MeSer-Gly-Arg-MePhe-MeGly-Tyr-MePhe-Pro-Cys-Gly-NH2?
48-membered ring
  ring closure, conversion: 74%

## catch-resin-ArSO2O-CH2CO-dTrp-Cys-Asp-Val-MeSer-Gly-Arg-MePhe-MeGly-Tyr-MePhe-Pro-Cys-Gly-NH2?
42-membered ring
  ring closure, conversion: 28%

## catch-resin-ArSO2O-CH2CO-dTrp-Gly-Asp-Pro-MeAla-Asp-Val-MeSer-Gly-Arg-MePhe-MeGly-Tyr-MePhe-Pro-Cys-Gly-NH2?
51-membered ring
  ring closure, conversion: 51%

## catch-resin-ArSO2O-CH2CO-dTrp-MeAla-Asp-Val-Cys-Gly-NH2?
18-membered ring
  ring closure, conversion: 83%

## catch-resin-ArSO2O-CH2CO-dTrp-MeAla-Asp-Val-MeSer-Cys-Gly-NH2?
21-membered ring
  ring closure, conversion: 66%

## catch-resin-ArSO2O-CH2CO-dTrp-MeAla-Asp-Val-MeSer-Gly-Arg-Cys-Gly-NH2?
27-membered ring
  ring closure, conversion: 98%

## catch-resin-ArSO2O-CH2CO-dTrp-MeAla-Asp-Val-MeSer-Gly-Arg-MePhe-MeGly-Cys-Gly-NH2?
33-membered ring
  ring closure, conversion: 64%

## catch-resin-ArSO2O-CH2CO-dTrp-MeAla-Asp-Val-MeSer-Gly-Arg-MePhe-MeGly-Tyr-Cys-Gly-NH2?
36-membered ring
  ring closure, conversion: 72%

## catch-resin-ArSO2O-CH2CO-dTrp-MeAla-Asp-Val-MeSer-Gly-Arg-MePhe-MeGly-Tyr-MePhe-Pro-Cys-Gly-NH2?
42-membered ring
  ring closure, conversion: 50%

## catch-resin-ArSO2O-CH2CO-dTrp-MeAla-Tyr-Asp-MeSer-Gly-Asp-Pro-MeAla-Asp-Val-MeSer-Gly-Arg-MePhe-MeGly-Tyr-MePhe-Pro-Cys-Gly-NH2?
63-membered ring
  ring closure, conversion: 44%

## catch-resin-ArSO2O-CH2CO-dTrp-MeSer-Gly-Asp-Pro-MeAla-Asp-Val-MeSer-Gly-Arg-MePhe-MeGly-Tyr-MePhe-Pro-Cys-Gly-NH2?
54-membered ring
  ring closure, conversion: 29%

## catch-resin-ArSO2O-CH2CO-dTrp-Pro-MeAla-Asp-Val-MeSer-Gly-Arg-MePhe-MeGly-Tyr-MePhe-Pro-Cys-Gly-NH2?
45-membered ring
  ring closure, conversion: 33%

## catch-resin-ArSO2O-CH2CO-dTrp-Tyr-Asp-MeSer-Gly-Asp-Pro-MeAla-Asp-Val-MeSer-Gly-Arg-MePhe-MeGly-Tyr-MePhe-Pro-Cys-Gly-NH2?
60-membered ring
  ring closure, conversion: 57%
